Laboratory results as given in patent publication US20180265915A1, “TRANSCRIPTION FACTOR DECOYS” (priority 2008, published 2018).
“Also recorded” adds a separate entry of the source.

Legend:
[1] = test system: E. coli; assay: FabB decoy growth assay with cerulenin in 96-well plate; type: cell-based, Escherichia coli; conditions: Rich media supplemented with 1 μg/ml cerulenin
Description: The decoy was prepared as described in Example 1.1 and used at various concentrations to transfect a well of a 96-well plate containing 200 μl of Rich media (10 g Tryptone, 5 g NaCl, 1 g Yeast extract per litre and supplemented with 0.2% glucose and 0.4% acetate, final concentrations) supplemented with 1 μg/ml cerulenin (Sigma). The plates were incubated at 37° C. with shaking and absorbance readings (at 595 nM) were taken using a plate reader. All data points were performed in triplicate.

[2] = test system: E. coli; assay: FabB TFD growth assay with cerulenin in LB, polymixin co-transfectant; type: cell-based, Escherichia coli
Description: For example, a FabB decoy which targets the regulation of genes essential for fatty acid synthesis may be tested against suitable strain, e.g. E. coli grown in e.g. Luria-Bertani LB media (1% [w/v] Bacto-tryptone, 0.5% [w/v] Yeast extract, 1% [w/v] NaCl) in the presence of an antibiotic which acts on the process of fatty acid synthesis, e.g. Cerulenin.
The effect of TFDs on the growth of E. coli bacterial cultures was measured as described in Example 4.1 with a few modifications: the media used was LB; the co-transfectant used was 40 nM polymixin, rather than gramicidin; the media was also supplemented with 10 μg/ml Cerulenin (CER). CER is an antibiotic that acts on fatty acid synthesis.

[3] = test system: S. aureus; assay: Growth of S. aureus transfected by electroporation under conditions of stress; type: cell-based, Staphylococcus aureus; conditions: BHI or LB media with 30 mM KOH, vs mock-electroporation or unrelated sequence
Description: For example, stress response can be induced in a suitable strain e.g. S. aureus by growing in, e.g. LB media under conditions of stress, e.g. alkali conditions. For example LB media containing KOH, e.g. at 30 mM may be used. Untreated bacteria grow well in this media, due to the induction of the stress response by the alkali conditions, whereas those treated with the SA_sigB decoy, targeting the regulation of sigB which is a major part of the regulatory response to stress, grow poorly.
Decoy polynucleotides were transfected into S. aureus by electroporation. Bacterial cells were prepared by standard methods. Briefy, cells were grown to early exponential phase in LB media at 37° C. as defined as reaching an Absorbance of 0.3 at […]. The cells were chilled to 4° C. and harvested by low speed centrifugation and washed three times in a similar volume of sterile, ice-cold 10% (v/v) glycerol. Finally the cells were resuspended in a tenth of their original volume in 10% glycerol. […] 200 μl of cells were aliquoted into wells of a 96 well plate that was incubated at 37° C. with moderate shaking, growth was monitored by measuring absorbance.

[4] = test system: S. aureus; assay: Growth studies in 96-well plates (DOTAP/Gramicidin transfection); type: cell-based, Staphylococcus aureus; conditions: 10 nM TFD, DOTAP, 60 nM Gramicidin
Description: Cholesterol/Cy5-labeled decoy polynucleotides were prepared as in section 5.1. Typically 1 Lg of TFD was then complexed with 0.3 μl of the liposomal transfection reagent DOTAP (Roche) and incubated at room temperature for 10 min. The assays to determine their effect on growth of bacterial cells were performed using 96 well plates, each well containing 200 μl of broth consisting of BHI media (from Becton Dickinson), which is not iron-limited, supplemented with 60 nM Gramicidin (from Sigma Corporation. Cat# G5002) or iron-depleted media (NRPMI) similarly supplemented with Gramicidin. The method for iron-depletion is described in full elsewhere (Science (2004) 305:1626-1628). 1 μl of various concentrations of a Cholesterol/Cy5-labeled decoy complexed with TFD were added to each well and their effect on bacterial growth of S. aureus monitored by measuring absorbance of the broth at intervals during incubation. The plates were incubated at 37° C. with shaking and absorbance readings (at 450 nM) were taken using a plate reader. Several decoys were tested: Sig, fhu and SsaA.

[5] = test system: M. smegmatis; assay: WhiB7 decoy antibiotic sensitisation, growth in shake flasks; type: cell-based, Mycobacterium smegmatis; conditions: 100 nM TFD; sub-inhibitory isoniazid (IZ) or rifampicin (RF); 9H11 + 10% ODAC, 37° C.
Description: A decoy polynucleotide containing the WhiB7 decoy sequence was prepared as described in Example 1.1 and various concentrations were used to transfect M. smegmatis grown in 20 ml of broth (in 200 ml shake flasks containing a wire baffle). The media used was 9H11 (Becton Dickinson) supplemented with 10% ODAC (Becton Dickinson) and sub-inhibitory concentrations of the antibiotics isoniazid (IZ) or rifampicin (RF). The flasks were incubated at 37° C. with shaking and at various intervals samples were withdrawn and their absorbance measured (to monitor cell growth). Flasks were either treated with 100 nM of the WhiB7 TFD (+) or treated with the negative control TFD (−).

FabB TFD: decoy containing the binding site for the FadR regulator, SEQ ID NO: 6 (DNA TTTATTCCGAACTGATCGGACTTGTTCAGCGTACACGTGTTAGCTATCCTGCGTGCTTCA; transcription factor decoy, method of preparation not given here for this one, further chemistry not given here)
growth of E. coli in broth (absorbance at 595 nM) [1]: caused the cells to hardly grow at all
sensitivity of E. coli to the action of cerulenin ([2]; 10 nM TFD, LB, 40 nM polymixin, 10 μg/ml Cerulenin): sensitises the bacteria to antibiotics (cerulenin); also recorded: rendered the bacteria sensitive to the action of cerulenin
effect on cells at 20 ug/ml cerulenin ([2]; FabB TFD plus cerulenin): the cells are being killed by the synergenistic action
growth of E. coli treated with the decoy versus untreated ([2]; LB media, Cerulenin 10 μg/ml): grow markedly more slowly and to lower final density

SsaA TFD: contains the binding site for the two-component regulator WalR, SEQ ID NO: 8 (DNA ATTACAAATTTGTAACAGACTTATTTTA; transcription factor decoy, made by PCR or oligonucleotide ligation, further chemistry not given here; listed as Staphylococcus aureus)
growth of S. aureus under conditions of stress [3]: capable of slowing the growth
effect on bacterial growth in BHI medium (non-iron limiting) [4]: measurable delay in bacterial growth
effect on bacterial growth in iron-limited media ([4]; NRPMI): no effect on bacterial growth

WhiB7 TFD: decoy with WhiB7 binding site, SEQ ID NO: 5, prepared by PCR with cholesterol/Cy5 primers (DNA TGGCCACGGATCCGGGTGACTGCGGGTCCGTGGCCT; PCR-made decoy including vector flanks, 5' cholesterol and Cy5 primer ends, further chemistry not given here)
sensitivity of cells to the antibiotics tested (growth by absorbance) [5]: rendered sensitive to both the antibiotics tested
